PubChem BioAssay AID485340 (Southern Research Specialized Biocontainment Screening …, 2010)
Activity calls are given as the source filed them. No rule for the calls is given here.

Test system: M. tuberculosis growth, meropenem IC50 shift with compound
Test: confirmation, meropenem IC50 shift (AID 485340);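 also: growth read after one week of culture plus overnight Alamar Blue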
[1] = compound alone IC50 vs Mtb, compound dose (near its own IC50) 9.38 µM
[2] = compound dose (near its own IC50) 9.38 µM
[3] = compound alone IC50 vs Mtb, compound dose (near its own IC50) 2.35 µM
[4] = compound dose (near its own IC50) 2.35 µM
[5] = compound alone IC50 vs Mtb, compound dose (near its own IC50) 4.69 µM
[6] = compound dose (near its own IC50) 4.69 µM
[7] = compound alone IC50 vs Mtb, compound dose (near its own IC50) 1.18 µM
[8] = compound dose (near its own IC50) 1.18 µM

CSc1nc(-c2ccc(Cl)cc2)nn1S(=O)(=O)c1ccccc1
IC50 [1]: 9.85 µM | IC50 [2]: 4.13 µM (inactive)

O=C(CCCCCN1C(=O)c2cccc([N+](=O)[O-])c2C1=O)Nc1ccccc1F
IC50 [1]: 10.2 µM | IC50 [2]: 1.08 µM (inactive)

Cc1c(OCc2ccc(C(=O)O)cc2)ccc2c(-c3ccccc3)cc(=O)oc12
IC50 [3]: 1.42 µM | IC50 [4]: 2.62 µM (inactive)

C/C(=N\NC(=O)c1cc2c(s1)CCC(C)C2)c1ccc[nH]1 (stereo not given)
IC50 [5]: 6.51 µM | IC50 [6]: 1.98 µM (inactive)

O=C(COC(=O)C1CC1)NCc1ccccc1Cl
IC50 [7]: 1.37 µM | IC50 [8]: 2.59 µM (inactive)

COc1cc(/C(C)=N\NC(N)=S)cc(OC)c1OC
IC50 [1]: 10.2 µM | IC50 [2]: 2.82 µM (inactive)

CC(C)=CCC/C(C)=C/C=N/NC(=O)c1ccc([N+](=O)[O-])cc1
IC50 [7]: 1.02 µM | IC50 [8]: 3.4 µM (inactive)

O=C(COC(=O)C1=COCCO1)Nc1ccc2c(c1)OCO2
IC50 [5]: 3.86 µM | IC50 [6]: 4.01 µM (inactive)

Cc1cc(/C=N/NC(=O)CC#N)c(C)n1-c1ccc([N+](=O)[O-])cc1
IC50 [1]: 10.2 µM | IC50 [2]: 4.08 µM (inactive)

Cc1cc(C)n(-c2nc3ccccc3c(=O)n2OCC(=O)N(C)C)n1
IC50 [1]: 7.74 µM | IC50 [2]: 4.61 µM (inactive)

O=c1c(O)c(-c2ccc3c(c2)OCO3)oc2ccccc12
IC50 [3]: 2.12 µM | IC50 [4]: 7.4 µM (inactive)

Cc1ccc(CC(=O)Nc2nc3ccccc3[nH]2)cc1C
IC50 [5]: 6.31 µM | IC50 [6]: 4.04 µM (inactive)

O=C(COc1ccc2ccccc2c1)Nc1nc2ccccc2[nH]1
IC50 [5]: 5.83 µM | IC50 [6]: 2.07 µM (inactive)

c1ccc(-c2cc(N3CCOCC3)nc3ccccc23)cc1
IC50 [3]: 2.78 µM | IC50 [4]: 3.41 µM (inactive)

Cc1onc(-c2c(Cl)cccc2Cl)c1/C(N)=N/OC(=O)C1CC1
IC50 [3]: 2.05 µM | IC50 [4]: 1.02 µM (inactive)

CC1=Nc2ccccc2/C1=C\c1nc(-c2ccc(F)cc2)oc1O
IC50 [5]: 3.73 µM | IC50 [6]: 4.02 µM (inactive)

Cc1cc(C)cc(NC(=O)c2cc(Cl)sc2Cl)c1
IC50 [5]: 4.84 µM | IC50 [6]: 1.88 µM (inactive)

COc1ccc(/C=C/C(=O)N(C(C)C)C(C)C)cc1Br
IC50 [5]: 5.89 µM | IC50 [6]: 4.03 µM (inactive)

O=c1oc(-c2ccccc2F)nc2scc(-c3ccccc3)c12
IC50 [3]: 2.19 µM | IC50 [4]: 5.8 µM (inactive)

N=C1C(c2nc3ccccc3[nH]2)=C(O)CN1c1ccc(F)cc1
IC50 [1]: 7.73 µM | IC50 [2]: 4.04 µM (inactive)

Cc1ccccc1OCC(=O)Nc1ccccc1N1CCCCC1
IC50 [5]: 5.94 µM | IC50 [6]: 6.96 µM (inactive)

CCc1ccc2nc(/N=C(\N)NC(=O)c3ccccc3)nc(C)c2c1
IC50 [7]: 1.02 µM | IC50 [8]: 4.22 µM (inactive)

Cc1ccc2[nH]c(O)c(N=Nc3nc4ccccc4s3)c2c1
IC50 [5]: 6.76 µM | IC50 [6]: 5.1 µM (inactive)

CCOc1ccc2c(c1)c(C(C)=O)c(C)n2-c1ccccc1
IC50 (compound alone IC50 vs Mtb, compound dose (near its own IC50) 0.15 µM): 0.2 µM | IC50 (compound dose (near its own IC50) 0.15 µM): 3.86 µM (inactive)

S=C(Nc1ccccc1)Nc1ccc(Cl)cn1
IC50 [5]: 4.68 µM | IC50 [6]: 4.86 µM (inactive)

COc1cccc(C(=O)C2CCCN(Cc3ccccn3)C2)c1 (stereo not given)
IC50 [7]: 1.46 µM | IC50 [8]: 7.15 µM (inactive)

c1ccc(-n2c3ccccc3c3ccccc32)cc1
IC50 [3]: 3.27 µM | IC50 [4]: 7.17 µM (inactive)

CCOc1cc(/C=N\Nc2ccc([N+](=O)[O-])cc2)ccc1OCC(=O)Nc1ccc(C)c(C)c1
IC50 [5]: 5.99 µM | IC50 [6]: 4.01 µM (inactive)

c1ccc(OCc2nnc(-c3ccccc3)o2)cc1
IC50 [7]: 1.4 µM | IC50 [8]: 7.26 µM (inactive)

CC(=O)Nc1cccc(/C(C)=N/NC(N)=S)c1
IC50 [1]: 7.9 µM | IC50 [2]: 2.08 µM (inactive)
